Values quoted from earlier work as cited in patent US20040198708A1, “Formulations of mometasone and a bronchodilator for pulmonary administration” (priority 2000, published 2004).

Assays:
[1] = test system: patients with mild to moderate persistent asthma; details: inhaled once daily, Nayak et al. (2000)
HPA axis [2] = details: humans, inhaled, dosages of up to 800 mcg daily; Bernstein et al. (1999)
HPA axis [3] = details: mice, inhaled; Chapman et al. (1998)

HPA axis suppression (HPA axis [2]): did not cause HPA axis suppression | Suppression of the HPA axis (HPA axis [3]): has not been reported
Structure (SMILES): C[C@@H]1C[C@H]2[C@@H]3CCC4=CC(=O)C=C[C@]4(C)[C@@]3(Cl)[C@@H](O)C[C@]2(C)[C@@]1(OC(=O)c1ccco1)C(=O)CCl [mometasone furoate, (11β,16α)-9,21-dichloro-17-[(2-furanylcarbonyl)oxy]-11-hydroxy-16-methylpregna-1,4-diene-3,20-dione]
Effectiveness in treating asthma [1]: effective
